≈ marks a conversion by molar mass, not a printed value. Read-outs that look alike come from different tables or passages of the source.
What was measured:
E. coli JW5503 KanR = experiment: MIC against transformant carrying APH(3′)-II; format: cell-based
Protocol: (§1) The determination of the MIC values was performed on five strains from the working collection of MSU. E. coli JW5503 [25], which lacked a kanamycin resistance cassette that had been removed as per the method outlined in [26], and a strain derived from this strain through in vitro selection with kanamycin. […] Strains containing AG-modifying enzymes were obtained through the transformation of E. coli JW5503 with plasmids that carried cassettes of resistance, namely pCRISPomyces-2–AAC(3)-IV (Addgene #61737), pdualrep2–APH(3′)-II [27] and pt67–ANT(3″). The MIC determination was performed as described for JW5503 in [19].

E. coli ATCC 25922 [1] = experiment: MIC, broth microdilution; format: cell-based, Escherichia coli
Text: (§2) The microbial strains used in this study were obtained from the collection of the Gause Institute of New Antibiotics. The control strains included in the analysis were S. aureus ATCC 29213, E. coli ATCC 25922, P. aeruginosa ATCC 27853, M. smegmatis ATCC 607. Clinical isolates E. coli MAR17-1350, K. pneumoniae APEX-5, K. pneumoniae MAR14-3395, and K. pneumoniae MAR18-1752 with multidrug resistance, including resistance to aminoglycosides were kindly provided by the Research Institute of Antimicrobial Chemotherapy (RIAC) of the Smolensk State Medical University, Smolensk. The microbial cultures were stored at −75 °C in trypticase soy broth (Becton, Dickinson, France) containing 10–15% glycerol. Storage was carried out in accordance with CLSI guidelines. Prior to experimentation, the bacterial strains were revived from cryopreservation by inoculating them onto trypticase soy agar (Becton, Dickinson, France) and incubating at (36 ± 1) °C for 16–24 h. Individual morphologically homogeneous colonies were then suspended in sterile physiological saline, and the turbidity of the suspension was adjusted to 0.5 McFarland units using a DEN-1 spectrophotometer (Biosan, Riga, Latvia), which corresponds to a concentration of 1.5 × 10^8 CFU/mL.
(§3) The samples were dissolved in sterile distilled water, depending on the physicochemical properties of the compounds under investigation, to a concentration of 10,000 µg/mL. Working solutions were then prepared by serial dilution, resulting in concentrations ranging from 64 µg/mL to 0.125 µg/mL.
(§4) Activity was evaluated by determining the minimum inhibitory concentration (MIC) values using the microdilution method in Mueller–Hinton Broth (Beckton and Dickinson, Le Pont-de-Claix, France), in accordance with the standard procedure for assessing the antimicrobial susceptibility of microorganisms.
(§5) The analysis was conducted in 96-well microtiter plates (Medpolymer, Saint Petersburg, Russia). The bacterial inoculum was introduced within 15 min of preparation. MIC values were determined after incubation for 15–18 h at (36 ± 1) °C. Microbial growth in the presence of the tested compounds was compared to the growth control (without exposure to the test samples). The MIC was defined as the lowest concentration at which visible microbial growth was inhibited.
(§6) To ensure the accuracy of the results, the control antibiotics kanamycin A, gentamycin, and tobramycin (Abcr GmbH, Karlsruhe, Germany) were included, along with standard reference strains: E. coli ATCC 25922. The MIC values for kanamycin A were determined as follows: E. coli ATCC 25922—1–4 µg/mL [22]. For gentamycin, the MIC values were E. coli ATCC 25922–0.25–1 µg/mL [23]. For tobramycin, the MIC values were E. coli ATCC 25922–0.25–1 µg/mL [23]. The MIC values of the reference strains were required to fall within the acceptable ranges specified in [24], provided that standard assay conditions were maintained.

E. coli JW5503 kanS = experiment: MIC against E. coli JW5503 parent strain; format: cell-based
Protocol: as §1

M. smegmatis ATCC 607 = experiment: MIC, broth microdilution; format: cell-based, Mycobacterium smegmatis; conditions: Mycolicibacterium smegmatis, ATCC607, Table 1
Text: as §2, §3, §4, §5, §6

E. coli JW5503 SmR = experiment: MIC against transformant carrying ANT(3″); format: cell-based
Protocol: as §1

[2] = test system: HEK293T human embryonic kidney cell line; experiment: Cytotoxicity, MTT test; format: cell-based; conditions: HEK-293T, 72 h, 2-250 µg/mL, read-out: IC50, viability of HEK293T cells
Protocol: The MTT test was performed in order to evaluate the effect of the compounds on eukaryotic cells’ survivability. Compounds 5a,b, 8a,b, and apramycin, as the reference drug, were tested on HEK293T human embryonic kidney cell line (ATCC). Compounds 5a,b, 8a,b, and apramycin were prepared as water solutions with a 50 mg/mL concentration. The HEK293T cell line was cultivated in DMEM/F-12 medium (Paneco LLC, Moscow, Russia) containing 10% FBS, 50 µg/mL penicillin, and 50 µg/mL streptomycin (Thermo Fisher Scientific, USA) at 37 °C in 5% CO2. Triplicates on 96-well plates were used, and 2500 HEK293T cells were seeded in 140 µL of DMEM/F-12 medium in each well during day one. The next day, compounds in twofold successive dilutions were added to these plates (concentrations in wells ranged between 2 and 250 µg/mL for 5a, 5b, and 8a, 8b). Plates were incubated for 72 h at 37 °C in 5% CO2. Afterwards, 0.5 mg/mL of the MTT reagent (Paneco LLC, Moscow, Russia) was added to each well. After 2 h of incubation, the media with MTT was replaced with 140 µL of DMSO, and all plates were placed on a shaker for 10 min for formazan to dissolve. Finally, the absorbance at a 555 nm wavelength was measured on all plates via the plate reader Victor X5 (PerkinElmer, Waltham, MA, USA). The data were then normalized, and dose–response curves and IC50 were calculated by means of GraphPad Prism version 8.0.2. (GraphPad Software, Inc., San Diego, CA, USA).

[3] = test system: E. coli JW5503 EF-G P610T; experiment: MIC against aminoglycoside-resistant EF-G mutant; format: cell-based
Protocol: as §1

E. coli JW5503 ApmR = experiment: MIC against transformant carrying AAC(3)-IV; format: cell-based
Protocol: as §1

K. pneumoniae MAR14-3395 = experiment: MIC, MDR clinical isolate; format: cell-based; conditions: K. pneumoniae MAR14-3395, MDR clinical isolate (NDM-1 + OXA-244)
Text: as §2, §3, §4, §5, §6

K. pneumoniae MAR18-1752 = experiment: MIC, MDR clinical isolate; format: cell-based; conditions: K. pneumoniae MAR18-1752, MDR clinical isolate (NDM-1)
Text: as §2, §3, §4, §5, §6

E. coli MAR17-1350 = experiment: MIC, MDR clinical isolate; format: cell-based; conditions: E. coli MAR17-1350, MDR clinical isolate (NDM-5)
Text: as §2, §3, §4, §5, §6

K. pneumoniae APEX-5 = experiment: MIC, MDR clinical isolate; format: cell-based; conditions: K. pneumoniae APEX-5, MDR clinical isolate (NDM-16)
Text: as §2, §3, §4, §5, §6

S. aureus ATCC 29213 = experiment: MIC, broth microdilution; format: cell-based; conditions: Staphylococcus aureus, ATCC29213, Table 1
Text: as §2, §3, §4, §5, §6

P. aeruginosa ATCC 27853 = experiment: MIC, broth microdilution; format: cell-based; conditions: Pseudomonas aeruginosa, ATCC27853, Table 1
Text: as §2, §3, §4, §5, §6

[4] = test system: E. coli JW5503 with pJC27 β-galactosidase codon 537 reporter; experiment: Translation accuracy using β-galactosidase reporters; format: cell-based; conditions: 0.1 μL of 50 mg/mL, 37 °C, 18 h, codon 537 GAC/GGG reporters
Protocol: To evaluate translation accuracy in the presence of antibiotics, E. coli JW5503 (kanamycin resistance cassette removed as per) was transformed with pJC27 plasmids. […] The synthesis of active β-galactosidase depends on translation errors occurring (when codons GAC and GGG are read as GAA). Petri dishes (9 cm) containing 20 mL of solid LB agar (1.5%), supplemented with chloramphenicol (11.3 μg/mL) and X-Gal (80 μg/mL), were prepared. A secondary soft-agar layer comprising 3.5 mL of LB agar (0.6%) supplemented with 11.3 μg/mL chloramphenicol and 0.5 mL of liquid culture (A600~1.0) was added and allowed to solidify. Antibiotics were applied to the plates in 0.1 μL aliquots at a concentration of 50 mg/mL for tobramycin, streptomycin, kanamycin, and apramycin, and for 5a, 5b, 8a, and 8b. The plates were then incubated at 37 °C for 18 h. […] The results were documented using a Samsung Galaxy Tab A71 camera.

E. coli ATCC 25922 [5] = conditions: E. coli ATCC 25922, reference strain quality control; cited from earlier work
[6] = Klebsiella pneumoniae, MAR143395, read-out: MIC
[7] = Klebsiella pneumoniae, MAR181752, read-out: MIC
[8] = Escherichia coli, MAR171350, read-out: MIC
[9] = Klebsiella pneumoniae, APEX5, read-out: MIC

Row | Molecule | MIC (E. coli JW5503 KanR; Escherichia coli, JW5503KANR) | MIC (E. coli JW5503 kanS; Escherichia coli, JW5503KANS) | MIC (E. coli JW5503 SmR; Escherichia coli, JW5503SMR) | MIC ([3]; Escherichia coli) | MIC (E. coli JW5503 ApmR; Escherichia coli, JW5503APMR) | MIC (K. pneumoniae MAR14-3395; [6]) | MIC (K. pneumoniae MAR18-1752; [7]) | MIC (E. coli MAR17-1350; [8]) | MIC (K. pneumoniae APEX-5; [9]) | MIC, control antibiotic range (E. coli ATCC 25922 [5]) | other results
1 | CN[C@@H]1[C@@H](O[C@H]2O[C@H](CO)[C@@H](N)[C@H](O)[C@H]2O)OC2C[C@@H](N)[C@@H](O[C@H]3[C@H](O)[C@@H](O)[C@H](N)C[C@@H]3N)OC2[C@@H]1O (stereo partly drawn) [Apramycin (1), apramycin] | 4 µg/mL (≈ 7.41 µM) | 8 µg/mL (≈ 14.8 µM) | 8 µg/mL (≈ 14.8 µM) | 64 µg/mL (≈ 119 µM) | > 256 µg/mL | 1 µg/mL | 1 µg/mL (≈ 1.85 µM) | 4 µg/mL (≈ 7.41 µM) | 1 µg/mL (≈ 1.85 µM) |  | MIC (E. coli ATCC 25922 [1]; Escherichia coli, ATCC25922, Table 1, read-out: MIC): 1 µg/mL (≈ 1.85 µM); MIC (M. smegmatis ATCC 607): 0.125 µg/mL (≈ 0.232 µM); IC50 [2]: > 250 µg/mL; MIC (S. aureus ATCC 29213): 1 µg/mL (≈ 1.85 µM); MIC (P. aeruginosa ATCC 27853): 2 µg/mL (≈ 3.71 µM); induction of translation errors (blue staining at edge of inhibition zone) [4]: blue staining
2 | kanamycin A [reference compound] |  |  |  |  |  |  |  |  |  | 1 to 4 µg/mL | MIC (E. coli JW5503 KanR; E. coli JW5503 KanR, APH(3′)-II on plasmid): >256 µg/mL; MIC (E. coli ATCC 25922 [1]; Table 2): 2 µg/mL; MIC (E. coli JW5503 kanS; E. coli JW5503 kanS (parent strain)): 4 µg/mL; MIC (E. coli JW5503 SmR; E. coli JW5503 SmR, ANT(3″) on plasmid): 8 µg/mL; MIC ([3]; E. coli JW5503 EF-G P610T (fusA mutant)): 64 µg/mL; MIC (E. coli JW5503 ApmR; E. coli JW5503 ApmR, AAC(3)-IV on plasmid): 32 µg/mL; MIC (K. pneumoniae MAR14-3395): >128 µg/mL; MIC (K. pneumoniae MAR18-1752): >128 µg/mL; MIC (E. coli MAR17-1350): >128 µg/mL; MIC (K. pneumoniae APEX-5): >128 µg/mL
3 | NC[C@H]1O[C@H](O[C@H]2[C@H](O)[C@@H](O[C@H]3O[C@H](CO)[C@@H](O)[C@H](N)[C@H]3O)[C@H](N)C[C@@H]2N)[C@H](N)C[C@@H]1O [Tobramycin, tobramycin, reference compound] | 2 µg/mL (≈ 4.28 µM) | 2 µg/mL (≈ 4.28 µM) | 4 µg/mL (≈ 8.56 µM) | 16 µg/mL (≈ 34.2 µM) | > 256 µg/mL | > 128 µg/mL | > 128 µg/mL | > 128 µg/mL | 32 µg/mL (≈ 68.4 µM) | 0.25 to 1 µg/mL | MIC (E. coli ATCC 25922 [1]; Escherichia coli, ATCC25922, Table 2, read-out: MIC): 0.5 µg/mL (≈ 1.07 µM)
4 | [H]/N=C(/N)N[C@H]1[C@H](O)[C@@H](O)[C@H](O[C@@H]2O[C@@H](C)[C@](O)(C=O)[C@H]2O[C@@H]2O[C@@H](CO)[C@H](O)[C@@H](O)[C@@H]2NC)[C@@H](N/C(N)=N\[H])[C@@H]1O [Streptomycin, streptomycin, reference compound] | 4 µg/mL (≈ 6.88 µM) | 4 µg/mL (≈ 6.88 µM) | > 256 µg/mL | 8 µg/mL (≈ 13.8 µM) | 4 µg/mL (≈ 6.88 µM) |  |  |  |  |  | 

From paper PMC12736951, “Design, Synthesis, and Biological Evaluation of 6″-Modified Apramycin Derivatives to Overcome Aminoglycoside Resistance” (Pharmaceutics, 2025)
